In ChEMBL document CHEMBL5465560, “Selectivity Literature for EUbOPEN Chemogenomic Library” (2024):
Values belong to the compound of their own block, whether it stands above or below them.

Assays:
[1] = molecular target: Mitogen-activated protein kinase 10 (Homo sapiens, UniProt P53779); experiment: Selectivity interaction (SelectScreen profiling (Invitrogen)) EUB0000607a MAPK10; settings: at 2 µM
[2] = molecular target: Serine/threonine-protein kinase Nek7 (Homo sapiens) (UniProt Q8TDX7); experiment: Selectivity interaction (Upstate Kinase Profiler service (Millipore)) EUB0000056c NEK7; settings: at 1 µM
Sequence of Serine/threonine-protein kinase Nek7 (Homo sapiens) (Q8TDX7 whole entry, looked up): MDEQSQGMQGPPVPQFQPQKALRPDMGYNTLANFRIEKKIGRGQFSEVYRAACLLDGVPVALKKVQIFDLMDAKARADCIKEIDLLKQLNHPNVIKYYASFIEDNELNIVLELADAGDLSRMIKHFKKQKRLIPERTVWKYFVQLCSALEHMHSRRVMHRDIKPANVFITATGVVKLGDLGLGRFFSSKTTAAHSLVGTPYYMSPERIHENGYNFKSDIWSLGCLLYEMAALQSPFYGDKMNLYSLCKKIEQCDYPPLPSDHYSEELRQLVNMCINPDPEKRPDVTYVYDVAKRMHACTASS

[3] = molecular target: Cyclin-dependent kinase 5 (Homo sapiens, UniProt Q00535); experiment: Selectivity interaction (ActivX KiNativ screen (kinase selectivity in THP-1 cell lysates)) EUB0000639a CDK5; type: subcellular; settings: lysate, at 0.2 µM
Sequence of Cyclin-dependent kinase 5 (Q00535 whole entry, looked up): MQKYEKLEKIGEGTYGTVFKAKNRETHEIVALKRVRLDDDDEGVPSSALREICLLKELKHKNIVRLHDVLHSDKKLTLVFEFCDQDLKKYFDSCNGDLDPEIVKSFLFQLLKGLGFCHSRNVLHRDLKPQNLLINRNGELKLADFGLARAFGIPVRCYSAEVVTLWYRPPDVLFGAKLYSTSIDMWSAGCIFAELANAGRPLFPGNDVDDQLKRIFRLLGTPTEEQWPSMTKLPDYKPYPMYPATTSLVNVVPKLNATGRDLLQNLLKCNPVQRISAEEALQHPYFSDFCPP

[4] = molecular target: T1, Dual specificity mitogen-activated protein kinase kinase 7 (Homo sapiens) (UniProt O14733); experiment: Selectivity interaction (ActivX KiNativ screen (kinase selectivity in THP-1 cell lysates)) EUB0000639a MAP2K7; type: subcellular; settings: lysate
T1 sequence (whole entry): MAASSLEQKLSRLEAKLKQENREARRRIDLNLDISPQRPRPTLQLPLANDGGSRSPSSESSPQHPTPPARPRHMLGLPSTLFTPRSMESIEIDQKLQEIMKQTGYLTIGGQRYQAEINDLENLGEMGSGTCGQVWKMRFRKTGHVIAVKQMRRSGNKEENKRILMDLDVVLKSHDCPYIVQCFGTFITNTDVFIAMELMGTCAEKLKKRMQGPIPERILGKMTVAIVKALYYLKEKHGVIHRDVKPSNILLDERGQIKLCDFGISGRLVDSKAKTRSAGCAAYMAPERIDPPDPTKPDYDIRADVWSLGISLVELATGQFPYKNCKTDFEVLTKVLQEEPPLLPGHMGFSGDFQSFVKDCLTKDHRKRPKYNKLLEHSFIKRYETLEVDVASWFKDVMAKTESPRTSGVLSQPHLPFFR

[5] = molecular target: Tyrosine-protein kinase Blk (Homo sapiens) (UniProt P51451); experiment: Selectivity interaction (ProQinase) EUB0000171b BLK
Sequence of Tyrosine-protein kinase Blk (Homo sapiens) (P51451 2-505 limits assumed): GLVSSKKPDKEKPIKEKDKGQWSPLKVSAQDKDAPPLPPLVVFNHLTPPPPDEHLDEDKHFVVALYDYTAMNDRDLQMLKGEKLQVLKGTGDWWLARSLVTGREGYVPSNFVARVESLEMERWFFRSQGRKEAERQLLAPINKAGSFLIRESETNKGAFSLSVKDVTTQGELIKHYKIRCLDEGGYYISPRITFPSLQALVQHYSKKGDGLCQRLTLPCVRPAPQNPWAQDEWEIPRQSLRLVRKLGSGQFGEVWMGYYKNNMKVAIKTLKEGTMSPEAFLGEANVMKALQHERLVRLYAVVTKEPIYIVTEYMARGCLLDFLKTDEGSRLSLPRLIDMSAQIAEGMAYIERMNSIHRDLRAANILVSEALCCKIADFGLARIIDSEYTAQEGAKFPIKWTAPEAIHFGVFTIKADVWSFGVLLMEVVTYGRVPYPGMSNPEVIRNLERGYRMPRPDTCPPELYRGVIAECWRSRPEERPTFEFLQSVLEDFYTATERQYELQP

[6] = molecular target: T2, Dual specificity protein kinase TTK (Homo sapiens) (UniProt P33981); experiment: Selectivity interaction (KinomeScan (DiscoverX)) EUB0000695a TTK; settings: at 100 nM
T2 sequence (whole entry): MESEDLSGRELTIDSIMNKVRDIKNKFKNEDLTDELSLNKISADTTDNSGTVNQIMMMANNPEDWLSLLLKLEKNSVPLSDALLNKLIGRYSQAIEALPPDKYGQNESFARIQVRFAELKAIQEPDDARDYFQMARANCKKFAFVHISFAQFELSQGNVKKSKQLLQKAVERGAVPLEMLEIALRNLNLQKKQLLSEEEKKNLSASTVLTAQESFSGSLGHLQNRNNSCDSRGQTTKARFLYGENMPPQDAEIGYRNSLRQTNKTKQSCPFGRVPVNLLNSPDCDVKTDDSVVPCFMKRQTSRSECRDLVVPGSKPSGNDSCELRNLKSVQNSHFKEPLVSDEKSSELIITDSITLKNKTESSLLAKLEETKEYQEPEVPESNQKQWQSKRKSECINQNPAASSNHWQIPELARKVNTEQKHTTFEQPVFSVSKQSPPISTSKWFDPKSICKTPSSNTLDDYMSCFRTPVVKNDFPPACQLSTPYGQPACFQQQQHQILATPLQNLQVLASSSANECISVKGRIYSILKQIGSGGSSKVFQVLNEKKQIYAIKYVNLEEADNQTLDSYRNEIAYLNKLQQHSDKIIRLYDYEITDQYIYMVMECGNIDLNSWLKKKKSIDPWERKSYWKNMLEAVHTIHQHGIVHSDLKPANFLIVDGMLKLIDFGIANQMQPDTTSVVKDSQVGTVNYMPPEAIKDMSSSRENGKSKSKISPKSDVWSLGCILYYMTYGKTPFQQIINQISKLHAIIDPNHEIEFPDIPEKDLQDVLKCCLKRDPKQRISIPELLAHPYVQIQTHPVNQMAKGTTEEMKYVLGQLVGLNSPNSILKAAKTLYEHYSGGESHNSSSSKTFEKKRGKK

[7] = molecular target: Cyclin-dependent kinase 17 (Homo sapiens) (UniProt Q00537); experiment: Selectivity interaction (Ambit KINOMEscan and KiNATiv profiling in Jurkat cells) EUB0000090b CDK17; type: cell-based; settings: at 1 µM
Sequence of Cyclin-dependent kinase 17 (Homo sapiens) (Q00537 whole entry, looked up): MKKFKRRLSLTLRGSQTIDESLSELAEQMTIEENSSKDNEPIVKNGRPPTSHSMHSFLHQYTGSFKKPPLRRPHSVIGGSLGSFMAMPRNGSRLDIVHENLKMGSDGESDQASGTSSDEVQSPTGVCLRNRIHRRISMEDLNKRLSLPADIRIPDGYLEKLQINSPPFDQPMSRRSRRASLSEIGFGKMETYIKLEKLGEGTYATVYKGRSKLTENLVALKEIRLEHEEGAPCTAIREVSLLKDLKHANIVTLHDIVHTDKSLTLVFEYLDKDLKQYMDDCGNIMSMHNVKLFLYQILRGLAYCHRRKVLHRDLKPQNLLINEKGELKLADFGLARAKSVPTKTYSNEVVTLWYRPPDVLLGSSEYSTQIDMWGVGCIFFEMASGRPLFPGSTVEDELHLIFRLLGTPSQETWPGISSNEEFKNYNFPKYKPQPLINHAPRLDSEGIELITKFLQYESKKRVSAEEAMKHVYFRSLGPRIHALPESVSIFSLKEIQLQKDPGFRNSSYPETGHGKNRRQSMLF

[8] = molecular target: Mitogen-activated protein kinase kinase kinase 9 (Homo sapiens) (UniProt P80192); experiment: Selectivity interaction (KinomeScan (DiscoverX)) EUB0000618a MAP3K9; settings: at 10 µM
Sequence of Mitogen-activated protein kinase kinase kinase 9 (Homo sapiens) (P80192 whole entry, looked up): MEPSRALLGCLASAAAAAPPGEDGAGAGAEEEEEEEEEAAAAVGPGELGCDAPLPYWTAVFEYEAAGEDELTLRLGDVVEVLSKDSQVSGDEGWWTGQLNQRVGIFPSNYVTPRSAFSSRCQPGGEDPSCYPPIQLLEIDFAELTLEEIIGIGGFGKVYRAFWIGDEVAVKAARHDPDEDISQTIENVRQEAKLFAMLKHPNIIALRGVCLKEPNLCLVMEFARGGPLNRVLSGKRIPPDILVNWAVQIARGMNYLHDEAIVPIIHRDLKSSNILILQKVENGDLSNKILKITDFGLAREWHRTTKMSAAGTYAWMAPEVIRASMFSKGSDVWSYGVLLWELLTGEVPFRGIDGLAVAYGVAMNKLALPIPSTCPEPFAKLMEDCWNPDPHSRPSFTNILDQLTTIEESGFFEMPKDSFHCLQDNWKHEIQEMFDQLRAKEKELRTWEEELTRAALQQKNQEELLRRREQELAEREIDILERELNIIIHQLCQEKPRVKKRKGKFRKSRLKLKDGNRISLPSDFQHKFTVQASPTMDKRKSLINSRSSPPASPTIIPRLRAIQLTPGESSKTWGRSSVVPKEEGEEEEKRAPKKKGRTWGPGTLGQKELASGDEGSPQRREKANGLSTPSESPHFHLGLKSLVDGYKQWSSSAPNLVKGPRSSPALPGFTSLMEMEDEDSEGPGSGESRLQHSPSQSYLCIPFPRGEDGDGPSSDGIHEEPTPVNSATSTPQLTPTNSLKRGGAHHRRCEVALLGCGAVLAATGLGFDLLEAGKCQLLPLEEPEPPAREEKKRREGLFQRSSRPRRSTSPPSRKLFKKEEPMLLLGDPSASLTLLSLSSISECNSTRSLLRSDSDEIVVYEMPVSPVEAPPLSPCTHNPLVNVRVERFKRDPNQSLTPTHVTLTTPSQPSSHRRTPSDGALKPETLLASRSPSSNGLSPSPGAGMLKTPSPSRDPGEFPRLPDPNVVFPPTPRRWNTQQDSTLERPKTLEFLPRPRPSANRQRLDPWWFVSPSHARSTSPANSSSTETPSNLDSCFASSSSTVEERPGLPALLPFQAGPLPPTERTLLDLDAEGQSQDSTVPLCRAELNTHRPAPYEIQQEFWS

[9] = molecular target: Cyclin-dependent kinase 7 (Homo sapiens, UniProt P50613); experiment: Selectivity interaction (KinomeScan (DiscoverX)) EUB0001619a CDK7; settings: at 1 µM
Sequence of Cyclin-dependent kinase 7 (P50613 whole entry): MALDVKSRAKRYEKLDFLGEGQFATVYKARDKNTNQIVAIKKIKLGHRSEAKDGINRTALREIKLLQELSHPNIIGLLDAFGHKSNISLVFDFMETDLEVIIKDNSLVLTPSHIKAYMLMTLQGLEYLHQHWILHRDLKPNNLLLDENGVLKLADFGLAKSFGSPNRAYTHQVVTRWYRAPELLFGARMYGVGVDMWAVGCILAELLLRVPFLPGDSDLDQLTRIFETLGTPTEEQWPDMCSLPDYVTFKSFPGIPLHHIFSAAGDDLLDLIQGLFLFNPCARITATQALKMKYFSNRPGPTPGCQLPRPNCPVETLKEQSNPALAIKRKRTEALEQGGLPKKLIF

[10] = molecular target: T3, Serine/threonine-protein kinase Nek9 (Homo sapiens) (UniProt Q8TD19); experiment: Selectivity interaction (KinomeScan (DiscoverX)) EUB0001619a NEK9; settings: at 1 µM
T3 sequence (whole entry): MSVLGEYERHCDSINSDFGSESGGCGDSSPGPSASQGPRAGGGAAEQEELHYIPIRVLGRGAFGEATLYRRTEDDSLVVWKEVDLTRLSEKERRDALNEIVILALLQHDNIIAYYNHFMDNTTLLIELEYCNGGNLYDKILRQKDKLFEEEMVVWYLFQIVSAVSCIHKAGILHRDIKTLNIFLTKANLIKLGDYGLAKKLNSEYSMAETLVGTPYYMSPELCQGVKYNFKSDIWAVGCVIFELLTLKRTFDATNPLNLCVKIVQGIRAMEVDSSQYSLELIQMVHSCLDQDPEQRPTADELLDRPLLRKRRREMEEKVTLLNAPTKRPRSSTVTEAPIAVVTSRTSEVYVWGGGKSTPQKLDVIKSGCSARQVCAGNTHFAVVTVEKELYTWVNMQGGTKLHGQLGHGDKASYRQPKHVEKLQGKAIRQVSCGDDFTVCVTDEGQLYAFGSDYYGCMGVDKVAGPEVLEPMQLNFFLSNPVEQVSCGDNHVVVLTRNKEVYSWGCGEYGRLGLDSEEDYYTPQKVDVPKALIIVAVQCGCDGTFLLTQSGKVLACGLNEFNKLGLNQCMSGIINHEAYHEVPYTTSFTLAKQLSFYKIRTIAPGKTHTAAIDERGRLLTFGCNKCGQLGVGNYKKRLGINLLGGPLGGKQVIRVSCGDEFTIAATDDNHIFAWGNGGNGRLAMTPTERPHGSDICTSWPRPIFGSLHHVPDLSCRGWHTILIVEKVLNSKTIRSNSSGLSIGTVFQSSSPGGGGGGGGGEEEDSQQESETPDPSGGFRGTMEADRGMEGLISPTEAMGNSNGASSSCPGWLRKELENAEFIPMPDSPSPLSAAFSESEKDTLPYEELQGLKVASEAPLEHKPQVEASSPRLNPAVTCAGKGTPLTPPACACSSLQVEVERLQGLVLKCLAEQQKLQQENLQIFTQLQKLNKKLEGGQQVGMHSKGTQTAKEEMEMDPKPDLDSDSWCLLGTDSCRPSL

Sequence of Mitogen-activated protein kinase 10 (P53779 whole entry): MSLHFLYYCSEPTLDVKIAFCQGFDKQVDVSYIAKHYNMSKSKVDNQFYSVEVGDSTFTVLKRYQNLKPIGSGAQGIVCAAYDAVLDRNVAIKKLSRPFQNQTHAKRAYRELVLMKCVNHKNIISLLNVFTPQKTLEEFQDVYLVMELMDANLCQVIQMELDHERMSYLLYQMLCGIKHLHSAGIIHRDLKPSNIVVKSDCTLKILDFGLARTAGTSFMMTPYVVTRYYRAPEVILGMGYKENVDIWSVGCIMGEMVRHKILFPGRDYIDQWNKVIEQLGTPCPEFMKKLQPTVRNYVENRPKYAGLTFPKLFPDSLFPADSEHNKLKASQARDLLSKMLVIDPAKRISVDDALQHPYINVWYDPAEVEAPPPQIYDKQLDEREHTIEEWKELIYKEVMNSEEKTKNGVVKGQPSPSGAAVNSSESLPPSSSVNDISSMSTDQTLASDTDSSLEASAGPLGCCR

SMILES: CNC(=O)Nc1ccc(-c2nc(N3CC4CCC(C3)O4)c3cnn(C4CCC5(CC4)OCCO5)c3n2)cc1
% of inhibition [1]: 14%

% of inhibition [2]: -3%
SMILES: Cc1ccc(-c2ccc3c(ccc4sc5c(c43)NC[C@@H](C)NC5=O)n2)cn1

% of inhibition [3]: -6.8% | % of inhibition ([4]; at 0.01 µM): 7.8% | % of inhibition ([4]; at 0.04 µM): 0.6% | % of inhibition ([4]; at 0.2 µM): 2.5% | % of inhibition ([4]; at 1 µM): 2.2% | % of inhibition ([4]; at 5 µM): -7.1%
SMILES: CC[C@@H]1[C@H](F)C(=O)N[C@@H]1COc1nccc2cc(C(N)=O)c(OC)cc12 [ZIMLOVISERTIB]

% of control ([5]; at 1 µM): 77% | % of control ([5]; at 5 µM): 81%
SMILES: C=CC(=O)Nc1cccc(C(=O)Nc2ccc(Nc3cc(-c4[nH]c(SC)nc4C)ccn3)cc2)c1

SMILES: Cc1cc(F)c(C(=O)Nc2cccc(-c3nncn3C(C)C)n2)cc1-n1cnc(C2CC2)c1
% of control [6]: 87%

SMILES: CN(C)C/C=C/C(=O)Nc1ccc(C(=O)N2CCCC(Nc3ncc(Cl)c(-c4c[nH]c5ccccc45)n3)C2)cc1 (stereo not given)
% of control [7]: 83%

SMILES: O[C@H]1CC[C@H](Nc2ncc3nc(Nc4c(F)cc(F)cc4F)n([C@H]4CCOC4)c3n2)CC1
% of control [8]: 100%

SMILES: N#Cc1cccc(-c2c[nH]c3ncnc(N4CCOCC4)c23)c1
% of control [9]: 81% | % of control [10]: 97%
